{
  "source": "patent US20120277187A1",
  "about": "“Agent for Preventing Infection” (priority 2006, published 2012)",
  "format_in_all_cases": "in vivo, mouse (Balb/c)",
  "key": {"[1]": {"tested_on": "B/Ibaraki virus (type B influenza virus)", "test": "Transnasal sphingomyelin with simultaneous type B influenza virus infection in mice (nasal cavity wash virus titer, plaque method with MDCK cell)", "procedure": "(§1) (Verification of the Effect to Prevent Infection with Type A Influenza Virus and Type B Influenza Virus)\n(§2) Mice (Balb/c, male, 6 weeks of age) were transnasally infected with A/Guinzhou virus as the type A influenza virus or B/Ibaraki virus as the type B influenza virus, and at the same time, a 100 μg/ml solution of the sphingomyelin (SPM) obtained in Example 1 was transnasally administered at a dose of 5 μl/nasal cavity dose (dose: 0.5 μg), and the preventive effect on the infection with an influenza virus was judged by the virus titer in the nasal cavity washes. In this connection, groups transnasally infected with respective influenza viruses alone were prepared. A plaque method which uses MDCK cell was used in the judgment."}, "[2]": {"tested_on": "A/Guizhou virus (type A influenza virus)", "test": "Transnasal sphingomyelin with simultaneous type A influenza virus infection in mice (nasal cavity wash virus titer, plaque method with MDCK cell)", "procedure": "as §1, §2"}, "[3]": {"tested_on": "influenza virus PR 8 (H1N1)", "test": "Oral administration of sphingomyelin, prevention of influenza virus infection in mice (nasal cavity wash virus titer, plaque method with MDCK cell)", "conditions": "for Nasal cavity virus titer x (PFU/ml: 10^x): 1×10^3 pfu PR 8 (H1N1), nasal cavity washes 3 days after infection", "from_the_text": "(Verification of the Effect of Oral Administration of Sphingomyelin on the Prevention of Infection with an Influenza Virus)\nA mouse (Balb/c, male, 6 weeks of age) was infected with 1×10^3 pfu in viral quantity of influenza virus PR 8 (H1N1). Before the infection treatment, sphingomyelin was orally administered, and its infection preventive effect was judged by the virus titer in the nasal cavity washes 3 days after the virus infection. In carrying out the oral administration, sphingomyelin was used by dispersing in water. A plaque method which uses MDCK cell was used in the judgment.\nThis indicates the effect of sphingomyelin to prevent infection with an influenza virus."}},
  "note": "Entries after “also recorded” stand apart in the source; their conditions may differ.",
  "data": [
    {"substance": "sphingomyelin [SPM]", "values": [
      {"measurement": "Nasal cavity virus titer", "setting": "[1]; B/Ibaraki virus, transnasal 100 μg/ml, 5 μl/nasal cavity (dose 0.5 μg) at the same time as infection", "value": "2.73 ± 0.06"},
      {"measurement": "Infection preventive effect (in words)", "setting": "[1]; type B influenza virus, transnasal administration", "value": "confirmed"},
      {"measurement": "Nasal cavity virus titer", "setting": "[2]; A/Guizhou virus, transnasal 100 μg/ml, 5 μl/nasal cavity (dose 0.5 μg) at the same time as infection", "value": "1.99 ± 0.31"},
      {"measurement": "Infection preventive effect (in words)", "setting": "[2]; type A influenza virus, transnasal administration", "value": "confirmed; also recorded: more considerable effect"},
      {"measurement": "Nasal cavity virus titer x (PFU/ml: 10^x)", "setting": "[3]; 1 mg oral before infection", "value": "2.23 ± 0.16 PFU/ml: 10^x"},
      {"measurement": "Nasal cavity virus titer x (PFU/ml: 10^x)", "setting": "[3]; 10 mg oral before infection", "value": "2.15 ± 0.29 PFU/ml: 10^x"},
      {"measurement": "Nasal cavity virus titer in administration group (in words)", "setting": "[3]; oral administration group versus control (no administration)", "value": "lowered with significance"}
    ]}
  ]
}
